The supplement of paper PMC10307832

How the values were obtained:
Assay in all cases: relative viability (nuclei count vs DMSO), 5 days (fraction); higher = more cells survive
Bicalutamide = compound: CC(O)(CS(=O)(=O)c1ccc(F)cc1)C(=O)Nc1ccc(C#N)c(C(F)(F)F)c1 [Bicalutamide]
Method in brief: (§1)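 Nuclei counted with MetaXpress define viability as the ratio of treated to vehicle wells, given as a median across plates. The lung cancer cell lines were in 1536-well plates, pinned with five √10-spaced library-drug doses and imaged at 4× after 5 days and Hoechst staining. Plates passed with control CV below 25% and at least one doubling.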

Bromopyruvate = compound: C(C(=O)C(=O)O)Br [Bromopyruvate]
Method in brief: as §1

[1] = compound: C(C(=O)C(=O)O)Br [Bromopyruvate] + Cc1nc(NC(=O)N2CCC[C@H]2C(N)=O)sc1-c1ccnc(C(C)(C)C(F)(F)F)c1 [Alpelisib] (partner 2 µM)
Method in brief: (§2)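 Five library-drug doses in √10 steps were combined with a fixed anchor-drug dose, or a single drug was given alone, by pin tool to lung cancer cell lines in 1536-well plates the day after seeding. Nuclei were stained and counted after 5 days. Relative viability is the nuclei count in treated wells over that in vehicle wells, taken as the median of duplicate plates.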

[2] = compound: C(C(=O)C(=O)O)Br [Bromopyruvate] + CS(=O)(=O)N1CCN(Cc2cc3nc(-c4cccc5[nH]ncc45)nc(N4CCOCC4)c3s2)CC1 [Pictilisib] (partner 1 µM)
Method in brief: as §2

## UMC-11
Bicalutamide; 0.08 µM
  relative viability: 0.958
Bicalutamide; 0.253 µM
  relative viability: 0.909
Bicalutamide; 0.8 µM
  relative viability: 1.17
Bicalutamide; 2.53 µM
  relative viability: 0.938
Bromopyruvate; 1 µM
  relative viability: 1.03
Bromopyruvate; 3.162 µM
  relative viability: 0.989
Bromopyruvate; 10 µM
  relative viability: 0.908
Bromopyruvate; 31.62 µM
  relative viability: 0.958
Bromopyruvate; 100 µM
  relative viability: 1
[1]; first compound 1 µM
  relative viability: 1.12
[1]; first compound 3.162 µM
  relative viability: 1.01
[1]; first compound 10 µM
  relative viability: 0.983
[1]; first compound 31.62 µM
  relative viability: 0.997
[1]; first compound 100 µM
  relative viability: 1.01
[2]; first compound 1 µM
  relative viability: 0.797
[2]; first compound 3.162 µM
  relative viability: 0.797
[2]; first compound 10 µM
  relative viability: 0.956
[2]; first compound 31.62 µM
  relative viability: 0.78
[2]; first compound 100 µM
  relative viability: 0.78
